Data from the supplement of paper PMC10307832.

Key:
Selumetinib + Dasatinib = compound: Cn1cnc2c(F)c(Nc3ccc(Br)cc3Cl)c(C(=O)NOCCO)cc21 [Selumetinib] + Cc1nc(Nc2ncc(C(=O)Nc3c(C)cccc3Cl)s2)cc(N2CCN(CCO)CC2)n1 [Dasatinib] (partner 0.075 µM); test: relative viability (nuclei count vs DMSO), 5 days (fraction); higher = more cells survive
Outline: (§1)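 Relative viability divides the nuclei count in treated wells by that in vehicle wells. Lung cancer cell lines were seeded in 1536-well plates, dosed by pin tool the next day, and fixed and stained after 5 days in one step with final 0.05% Triton X-100, 1% formaldehyde and 1 ug/ml Hoechst. Dosing was a single drug or a fixed anchor-drug dose plus five library-drug doses (not always all listed) in √10 steps, and values are medians of duplicate plates imaged at 4×.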

Venetoclax + Trametinib = compound: CC1(C)CCC(CN2CCN(c3ccc(C(=O)NS(=O)(=O)c4ccc(NCC5CCOCC5)c([N+](=O)[O-])c4)c(Oc4cnc5[nH]ccc5c4)c3)CC2)=C(c2ccc(Cl)cc2)C1 [Venetoclax] + CC(=O)Nc1cccc(-n2c(=O)n(C3CC3)c(=O)c3c(Nc4ccc(I)cc4F)n(C)c(=O)c(C)c32)c1 [Trametinib] (partner 0.02 µM); test: as above
Outline: as §1

Cell Line	relative viability (Selumetinib + Dasatinib; first compound 0.02 µM)	relative viability (Selumetinib + Dasatinib; first compound 0.06325 µM)	relative viability (Selumetinib + Dasatinib; first compound 0.2 µM)	relative viability (Selumetinib + Dasatinib; first compound 0.6325 µM)	relative viability (Venetoclax + Trametinib; first compound 0.01 µM)	relative viability (Venetoclax + Trametinib; first compound 0.03162 µM)	relative viability (Venetoclax + Trametinib; first compound 0.1 µM)	relative viability (Venetoclax + Trametinib; first compound 0.3162 µM)	relative viability (Venetoclax + Trametinib; first compound 1 µM)
PC-14	0.265	0.26	0.256	0.217	0.679	0.726	0.726	0.642	0.645
NCI-H520	0.261	0.29	0.278	0.306	0.58	0.823		0.613	0.594
LXF-289	0.223	0.315	0.324	0.311	0.716	0.692	0.629	0.625	0.575
NCI-H441	0.602	0.363	0.41	0.307	0.49	0.494	0.506	0.439	0.5
NCI-H596	0.625	0.546	0.565	0.483	0.731	0.746	0.851	0.951	0.755
NCI-H727	0.308	0.299	0.267	0.279	0.363	0.392	0.406	0.412	0.386
NCI-H838	0.275	0.254	0.304	0.267	0.559	0.522	0.524	0.491	0.488
NCI-H1793	0.393	0.375	0.296	0.294	0.334	0.46	0.367	0.335	0.419
NCI-H1792	0.787	0.802	0.704	0.597	0.456	0.405	0.485	0.498	0.439
NCI-H1355	0.717	0.631	0.543	0.413	0.455	0.46	0.435	0.432	0.44
HARA	0.28	0.288	0.247	0.271	1.26	0.818		0.647	0.676
201T	0.589	0.571	0.585	0.555	0.675	0.699	0.713	0.682	0.696
NCI-H23	0.808	0.644	0.5	0.397	0.441	0.427	0.365	0.346	0.346
CAL-12T	0.363	0.258	0.285	0.258	0.24	0.385	0.357	0.379	0.278
NCI-H647	0.187	0.2	0.167	0.154	0.463	0.428	0.423	0.399	0.433
NCI-H1915	0.302	0.281	0.225	0.174	0.253	0.319	0.295	0.318	0.299
NCI-H2087	0.535	0.293	0.273	0.13	0.197	0.181	0.178	0.199	0.257
NCI-H2085	0.25	0.23	0.204	0.215	0.45	0.56	0.416	0.547	0.511
